Biological target: T1, recombinant human GR (Homo sapiens, UniProt P04150)
T1 construct: purchased Panvera/Invitrogen P2812 (kit P2893)
T1 sequence (P04150 1-777): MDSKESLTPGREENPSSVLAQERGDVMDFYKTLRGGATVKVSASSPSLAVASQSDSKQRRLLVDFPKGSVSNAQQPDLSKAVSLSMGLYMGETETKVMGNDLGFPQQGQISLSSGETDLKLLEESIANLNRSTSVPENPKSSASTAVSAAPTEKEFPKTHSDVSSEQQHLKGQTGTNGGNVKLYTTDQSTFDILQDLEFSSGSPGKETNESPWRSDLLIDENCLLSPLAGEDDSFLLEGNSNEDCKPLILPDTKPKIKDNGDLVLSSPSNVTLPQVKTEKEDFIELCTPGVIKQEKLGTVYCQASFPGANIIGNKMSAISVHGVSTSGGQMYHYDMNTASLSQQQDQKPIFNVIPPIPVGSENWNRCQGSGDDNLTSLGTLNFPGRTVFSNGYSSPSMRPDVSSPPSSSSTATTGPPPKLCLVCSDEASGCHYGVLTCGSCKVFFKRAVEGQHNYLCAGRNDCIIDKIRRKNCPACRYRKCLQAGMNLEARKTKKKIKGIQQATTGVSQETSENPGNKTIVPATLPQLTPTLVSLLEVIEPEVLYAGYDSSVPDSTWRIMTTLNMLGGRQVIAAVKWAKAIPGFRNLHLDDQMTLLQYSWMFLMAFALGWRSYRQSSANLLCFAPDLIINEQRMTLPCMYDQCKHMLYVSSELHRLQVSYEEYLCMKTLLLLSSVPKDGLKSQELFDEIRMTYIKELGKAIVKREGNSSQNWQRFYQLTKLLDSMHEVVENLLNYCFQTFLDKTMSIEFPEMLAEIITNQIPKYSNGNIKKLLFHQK
Assay: Human Glucocorticoid Receptor (GR) Assay (fluorescence polarization, Panvera/Invitrogen kit)
Details: GS Red tracer, 2 hours at room temperature, 100% control 10 μM Dexamethasone, read-out: Inhibition of GR binding, IC50
Procedure: Human Glucocorticoid Receptor (GR) Assay The assay is based on a commercial kit from Panvera/Invitrogen (Part number P2893). The assay technology is fluorescence polarization. The kit utilises recombinant human GR (Panvera, Part number P2812), a Fluoromone™ labelled tracer (GS Red, Panvera, Part number P2894) and a Stabilizing Peptide 10× (Panvera, Part number P2815). The GR and Stabilizing Peptide reagents are stored at −70° C. while the GS Red is stored at −20° C. Also included in the kit are 1M DTT (Panvera, Part number P2325, stored at −20° C.) and GR Screening buffer 10× (Panvera, Part number P2814, stored at −70° C. initially but once thawed stored at room temperature). Avoid repeated freeze/thaws for all reagents. The GR Screening buffer 10× comprises 100 mM potassium phosphate, 200 mM sodium molybdate, 1 mM EDTA and 20% DMSO. Test compounds (1 μL) and controls (1 μL) in 100% DMSO were added to black polystyrene 384-well plates (Greiner low volume black flat-bottom, part number 784076). 0% control was 100% DMSO and 100% control was 10 μM Dexamethasone. Background solution (8 μL; assay buffer 10×, Stabilizing Peptide, DTT and ice cold MQ water) was added to the background wells. GS Red solution (7 μL; assay buffer 10×, Stabilizing Peptide, DTT, GS Red and ice cold water) was added to all wells except background wells. GR solution (7 μL; assay buffer 10×, Stabilizing Peptide, DTT, GR and ice cold water) was added to all wells. The plate was sealed and incubated in a dark at room temperature for 2 hours. The plate was read in an Analyst plate reader (LJL Biosystems/Molecular Devices Corporation) or other similar plate reader capable of recording fluorescence polarization (excitation wavelength 530 nm, emission wavelength 590 nm and a dichroic mirror at 561 nm).

| SMILES | IC50 [nM] |
| --- | --- |
| CCC[C@@H]1O[C@@H]2C[C@H]3[C@@H]4CCC5=Cc6c(cnn6-c6ccc(F)c(CN7CCCC7)c6)C[C@]5(C)[C@H]4[C@@H](O)C[C@]3(C)[C@]2(C(=O)CO)O1 [Example 3, 1-[(4aR,4bS,5S,6aS,6bS, 8R,9aR,10aS,10bS)-1-[4-fluoro-3-(pyrrolidin-1-ylmethyl)phenyl]-5-hydroxy-4a,6a-dimethyl-8-propyl-4,4a,4b,5,6,6a,9a,10, 10a,10b,11,12-dodecahydro[1,3]dioxolo [3′,4′]cyclopenta [1′,2′:5,6]naphtho[1,2-f]indazol-6b(1H)-yl]-2-hydroxyethanone] | 37 |
| CCC[C@H]1O[C@@H]2C[C@H]3[C@@H]4CCC5=Cc6c(cnn6-c6ccc(F)c(CN7CCN(C)CC7)c6)C[C@]5(C)[C@H]4[C@@H](O)C[C@]3(C)[C@]2(C(=O)CO)O1 [Example 5, 1-[(4aR,4bS,5S,6aS,6bS, 8S,9aR,10aS,10bS)-1-{4-fluoro-3-[(4-methylpiperazin-1-yl)methyl]phenyl}-5-hydroxy-4a,6a-dimethyl-8-propyl-4,4a,4b,5,6,6a,9a,10, 10a,10b,11,12-dodecahydro[1,3]dioxolo [3′,4′]cyclopenta [1′,2′:5,6]naphtho[1,2-f]indazol-6b(1H)-yl]-2-hydroxyethanone trifluoroacetic acid] | 77 |
| CCC[C@@H]1OC2C[C@H]3[C@@H]4CCC5=Cc6c(cnn6-c6ccc(F)c(CN(CC)CC)c6)C[C@]5(C)[C@H]4[C@@H](O)C[C@]3(C)[C@]2(C(=O)CO)O1 (stereo partly drawn) [Example 6, 1-[(4aR,4bS,5S,6aS,6bS, 8R,9aR,10aS,10bS)-1-{3-[(diethylamino)methyl]-4-fluorophenyl}-5-hydroxy-4a,6a-dimethyl-8-propyl-4,4a,4b,5,6,6a,9a,10, 10a,10b,11,12-dodecahydro[1,3]dioxolo [3′,4′]cyclopenta [1′,2′:5,6]naphtho[1,2-f]indazol-6b(1H)-yl]-2-hydroxyethanone] | 72 |
| CCC[C@H]1O[C@@H]2C[C@H]3[C@@H]4CCC5=Cc6c(cnn6-c6ccc(F)c(CN7CCC(O)CC7)c6)C[C@]5(C)[C@H]4[C@@H](O)C[C@]3(C)[C@]2(C(=O)CO)O1 [Example 10, 1-[(4aR,4bS,5S,6aS,6bS, 8S,9aR,10aS,10bS)-1-{4-fluoro-3-[(4-hydroxypiperidin-1-yl)methyl]phenyl}-5-hydroxy-4a,6a-dimethyl-8-propyl-4,4a,4b,5,6,6a,9a,10, 10a,10b,11,12-dodecahydro[1,3]dioxolo [3′,4′]cyclopenta [1′,2′:5,6]naphtho[1,2-f]indazol-6b(1H)-yl]-2-hydroxyethanone trifluoroacetic acid] | 67 |
| CCC[C@H]1O[C@@H]2C[C@H]3[C@@H]4CCC5=Cc6c(cnn6-c6ccc(F)c(CNCCCO)c6)C[C@]5(C)[C@H]4[C@@H](O)C[C@]3(C)[C@]2(C(=O)CO)O1 [Example 12, 1-[(4aR,4bS,5S,6aS,6bS, 8S,9aR,10aS,10bS)-1-(4-fluoro-3-{[(3-hydroxypropyl)amino]methyl}phenyl)-5-hydroxy-4a,6a-dimethyl-8-propyl-4,4a,4b,5,6,6a,9a,10, 10a,10b,11,12-dodecahydro[1,3]dioxolo [3′,4′]cyclopenta [1′,2′:5,6]naphtho[1,2-f]indazol-6b(1H)-yl]-2-hydroxyethanone trifluoroacetic acid] | 76 |

Stronger by IC50, values ahead:

| IC50 [nM] | SMILES |
| --- | --- |
| 34 | CCC[C@@H]1O[C@@H]2C[C@H]3[C@@H]4CCC5=Cc6c(cnn6-c6ccc(F)c(CNCCCO)c6)C[C@]5(C)[C@H]4[C@@H](O)C[C@]3(C)[C@]2(C(=O)CO)O1 [Example 11, 1-[(4aR,4bS,5S,6aS,6bS, 8R,9aR,10aS,10bS)-1-(4-fluoro-3-{[(3-hydroxypropyl)amino]methyl}phenyl)-5-hydroxy-4a,6a-dimethyl-8-propyl-4,4a,4b,5,6,6a,9a,10, 10a,10b,11,12-dodecahydro[1,3]dioxolo [3′,4′]cyclopenta [1′,2′:5,6]naphtho[1,2-f]indazol-6b(1H)-yl]-2-hydroxyethanone trifluoroacetic acid] |
| 21 | CCC[C@@H]1O[C@@H]2C[C@H]3[C@@H]4CCC5=Cc6c(cnn6-c6ccc(F)c(CN7CCN(C)CC7)c6)C[C@]5(C)[C@H]4[C@@H](O)C[C@]3(C)[C@]2(C(=O)CO)O1 [Example 4, 1-[(4aR,4bS,5S,6aS,6bS, 8R,9aR,10aS,10bS)-1-{4-fluoro-3-[(4-methylpiperazin-1-yl)methyl]phenyl}-5-hydroxy-4a,6a-dimethyl-8-propyl-4,4a,4b,5,6,6a,9a,10, 10a,10b,11,12-dodecahydro[1,3]dioxolo [3′,4′]cyclopenta [1′,2′:5,6]naphtho[1,2-f]indazol-6b(1H)-yl]-2-hydroxyethanone trifluoroacetic acid] |
| 21 | CCC[C@@H]1O[C@@H]2C[C@H]3[C@@H]4CCC5=Cc6c(cnn6-c6ccc(F)c(CN7CCC(O)CC7)c6)C[C@]5(C)[C@H]4[C@@H](O)C[C@]3(C)[C@]2(C(=O)CO)O1 [Example 9, 1-[(4aR,4bS,5S,6aS,6bS, 8R,9aR,10aS,10bS)-1-{4-fluoro-3-[(4-hydroxypiperidin-1-yl)methyl]phenyl}-5-hydroxy-4a,6a-dimethyl-8-propyl-4,4a,4b,5,6,6a,9a,10, 10a,10b,11,12-dodecahydro[1,3]dioxolo [3′,4′]cyclopenta [1′,2′:5,6]naphtho[1,2-f]indazol-6b(1H)-yl]-2-hydroxyethanone trifluoroacetic acid] |
| 16 | CCC[C@H]1O[C@@H]2C[C@H]3[C@@H]4CCC5=Cc6c(cnn6-c6ccc(F)c(CN7CCSCC7)c6)C[C@]5(C)[C@H]4[C@@H](O)C[C@]3(C)[C@]2(C(=O)CO)O1 [Example 8, 1-[(4aR,4bS,5S,6aS,6bS, 8S,9aR,10aS,10bS)-1-[4-fluoro-3-(thiomorpholin-4-ylmethyl)phenyl]-5-hydroxy-4a,6a-dimethyl-8-propyl-4,4a,4b,5,6,6a,9a,10, 10a,10b,11,12-dodecahydro[1,3]dioxolo [3′,4′]cyclopenta [1′,2′:5,6]naphtho[1,2-f]indazol-6b(1H)-yl]-2-hydroxyethanone trifluoroacetic acid] |
| 12 | CCC[C@@H]1O[C@@H]2C[C@H]3[C@@H]4CCC5=Cc6c(cnn6-c6ccc(F)c(CN7CCSCC7)c6)C[C@]5(C)[C@H]4[C@@H](O)C[C@]3(C)[C@]2(C(=O)CO)O1 [Example 7, 1-[(4aR,4bS,5S,6aS,6bS, 8R,9aR,10aS,10bS)-1-[4-fluoro-3-(thiomorpholin-4-ylmethyl)phenyl]-5-hydroxy-4a,6a-dimethyl-8-propyl-4,4a,4b,5,6,6a,9a,10, 10a,10b,11,12-dodecahydro[1,3]dioxolo [3′,4′]cyclopenta [1′,2′:5,6]naphtho[1,2-f]indazol-6b(1H)-yl]-2-hydroxyethanone trifluoroacetic acid] |
| 8.7 | CCC[C@H]1O[C@@H]2C[C@H]3[C@@H]4CCC5=Cc6c(cnn6-c6ccc(F)c(CN7CCOCC7)c6)C[C@]5(C)[C@H]4[C@@H](O)C[C@]3(C)[C@]2(C(=O)CO)O1 [Example 2] |
| 8 | CCC[C@@H]1O[C@@H]2C[C@H]3[C@@H]4CCC5=Cc6c(cnn6-c6ccc(F)c(CN7CCOCC7)c6)C[C@]5(C)[C@H]4[C@@H](O)C[C@]3(C)[C@]2(C(=O)CO)O1 [Example 1, 1-[(4aR,4bS,5S,6aS,6bS,8R,9aR,10aS,10bS)-1-[4-fluoro-3-(morpholin-4-ylmethyl)phenyl]-5-hydroxy-4a,6a-dimethyl-8-propyl-4,4a,4b,5,6,6a,9a,10,10a,10b,11,12-dodecahydro[1,3]-dioxolo[3′,4′]cyclopenta-[1′,2′:5,6]naphtho[1,2-f]indazol-6b(1H)-yl]-2-hydroxyethanone trifluoroacetic acid] |

Reference: patent publication US20110160167A1, “Steroid Derivatives Acting As Glucocorticosteroid Receptor Agonists” (AstraZeneca AB, priority 2007, published 2011)
